Measurements taken from US8048915B2, “Biologically active complex” (BioMas Ltd., priority 2001, dated 2011).
Several values for one entry are separate records, joined by “and”; a condition that tells them apart may be missing. Identical values can stand only once. Like-named read-outs stand apart in the source and are kept apart here.

Columns and labels:
[1] = Solubility in phosphate buffer solution (PBS) at pH7; assay type: physicochemical
[2] = tested on: Ha-Ras transformed NIH-3T3 cells; test: Colony growth of Ha-Ras transformed NIH-3T3 cells; assay type: cell-based; conditions: 0.005-5 μg/ml in PBS; one week; clones counted
Description: (§1) 5×10^2 cells were plated per 60 mm dish and incubated with different concentrations (0.005-5 μg/ml) of the complex in PBS. A week later, the cells were stained with Gimsa and clones were counted. Similar experiments were conducted using V-mos transformed NIH-3T3 cells, and also using Ph2TeCl2 and Ph3TeCl, with both types of transformed cells.

[3] = tested on: V-mos transformed NIH-3T3 cells; test: Colony growth of V-mos transformed NIH-3T3 cells; assay type: cell-based; conditions: one week; clones counted
Description: as §1

[4] = tested on: IL-2 receptors of human mononuclear cells; test: Induction of IL-2 receptors of human mononuclear cells (proliferation with recombinant IL-2, 3H thymidine uptake); assay type: cell-based
Description: Human MNC were brought to a concentration of 10^6 cells/ml. RPMI+10% FCS. Aliquots of 0.2 ml. were placed in duplicate wells of microdishes and plates were incubated at 37° C. for 24 hrs. […] Plates were further incubated for 48 hrs and labeled with ^3H thymidine 24 hrs before harvesting. The proliferation was measured by ^3HT uptake as described by Gillis et al, J. Immunol. […] The results are expressed in counts per minute.

IL-2 receptors = test: IL-2 receptor sites on human mononuclear cells, fluoresceinated antibody; assay type: cell-based
Description: This example provides an assay to detect the presence of receptor sites for IL-2. […] The cells were washed twice with PBS and then incubated with a specific fluoresceinated antibody against IL-2 receptors as described in Uchiyama et al, J. Immunol.

human mononuclear cells [5] = conditions: range of 1 to 10 ng/ml of cells; 72 hours incubation
Description: Aliquots of 0.2 ml from each sample were placed in wells of microplates (NUNC) (triplicates). […] Cells were further incubated overnight and harvested with a cell harvester.
Cells were further incubated overnight and harvested with a cell harvester.

human mononuclear cells [6] = test: Proliferation of human mononuclear cells (Example 14); assay type: cell-based; conditions: for proliferation of human mononuclear cells (3H methyl-thymidine): 72 hours + 24 hours label
Description: Human mononuclear cells were obtained by layering heparinized blood over a Ficoll/Hypaque gradient. The mononuclear cells were resuspended in enriched RPMI, rinsed three times and brought to a concentrations of 5×10^5cells/ml enriched RPMI. Varying concentrations of the complexes of Ex. 1 and Ex. 7(a), ranging from 0.005 μg to 5 μg/cell mixture were added to the cells. Aliquots of 0.2 ml of each sample were placed in wells of microplates (triplicates).

IL-2 = tested on: IL-2
Description: The complexes were administered in these dilutions, as drinking water, to male Balb-C mice, 6-8 weeks of age over a 4 day period. The exact amount of liquid intake was recorded daily. […] The cells were incubated at a concentration of 10^7 cells/ml in enriched RPMI containing 2 μg/ml of con-A for 24 hours at 37° C. The supernatants were collected and tested for IL-2 content.

human mononuclear cells [7] = test: Proliferation of human mononuclear cells (Example 14); assay type: cell-based; conditions: 72 hours + 24 hours label
[8] = 10 μg/ml H2O as drinking water over 4 days

C1CO[Te]2(O1)OCCO2 [preparation 3]
solubility [1]: 16 ± 0.4; mg Te/100 ml PBS

Cl[Te](Cl)(c1ccccc1)c1ccccc1 [Ph2TeCl2, reference compound]
number of colonies / growth compared with control [2]: did not inhibit their growth | inhibition of growth [3]: none of the complex, Ph2TeCl2 or Ph3TeCl inhibited the growth

Phytohemagglutinin M [Phytohemagglutinin M (Difco), reference compound]
proliferation, 3HT uptake ([4]; Test A, positive control, concentration not given): Phytohemagglutinin M (Difco) 195,432 counts per minute | proliferation, 3HT uptake ([4]; Test B, positive control, concentration not given): Phytohemagglutinin M (Difco) 125,272 counts per minute | cells positive for IL-2 receptors (IL-2 receptors; in the presence of PHA, concentration not given): 80%

Cl[Te](c1ccccc1)(c1ccccc1)c1ccccc1 [Ph3TeCl, reference compound]
number of colonies / growth compared with control [2]: did not inhibit their growth | inhibition of growth [3]: none of the complex, Ph2TeCl2 or Ph3TeCl inhibited the growth

equimolar complex of TeO2 and ethylene glycol [Example 7(a)]
proliferation, 3HT uptake ([4]; Test B, 1 μg/ml): 9315 counts per minute | proliferation, 3HT uptake ([4]; Test B, 1 × 10^−2 μg/ml): 6418 counts per minute | proliferation, 3HT uptake ([4]; Test B, 1 × 10^−3 μg/ml): 5167 counts per minute | proliferation, 3HT uptake ([4]; Test B, 1 × 10^−4 μg/ml): 5372 counts per minute | proliferation, 3HT uptake ([4]; Test B, 1 × 10^−5 μg/ml): 6397 counts per minute | proliferation, 3HT uptake ([4]; Test B, 5 × 10^−1 μg/ml): 8688 counts per minute | proliferation, 3HT uptake ([4]; Test B, 5 × 10^−2 μg/ml): 5538 counts per minute | proliferation, 3HT uptake ([4]; Test B, 7 × 10^−1 μg/ml): 5250 counts per minute | increase of proliferation of human mononuclear cells (human mononuclear cells [5]): 10 fold | proliferation of human mononuclear cells (3H methyl-thymidine) (human mononuclear cells [6]; 1 × 10^−4 μg/ml, listed as Ex. 7(a)): 4321 and 2332 | proliferation of human mononuclear cells (3H methyl-thymidine) (human mononuclear cells [6]; 5 × 10^−2 μg/ml, listed as Ex. 7(a)): 5953 and 5532 | IL-2 content, cpm (IL-2; 1 μg/ml H2O as drinking water over 4 days): 32843 cpm | IL-2 content, cpm (IL-2; [8]): 42500 cpm | Percent increase as compared to control (IL-2; [8]): +30% | IL-2 content, cpm (IL-2; 25 μg/ml H2O as drinking water over 4 days): 36815 cpm | inducing lymphokine production when given orally (IL-2; orally in an aqueous diluent): active

Cl[Te](Cl)(Cl)Cl [TeCl4, tellurium tetrachloride]
solubility [1]: 2.3 ± 0.1; mg Te/100 ml PBS

O=[Te]=O [TeO2, Tellurium dioxide, reference compound]
proliferation, 3HT uptake ([4]; Test A, 1 μg/ml): 1563 counts per minute | proliferation, 3HT uptake ([4]; Test A, 1 × 10^−2 μg/ml): 3108 counts per minute | proliferation, 3HT uptake ([4]; Test A, 1 × 10^−3 μg/ml): 2867 counts per minute | proliferation, 3HT uptake ([4]; Test A, 1 × 10^−4 μg/ml): 5540 counts per minute | proliferation, 3HT uptake ([4]; Test A, 1 × 10^−5 μg/ml): 3442 counts per minute | proliferation, 3HT uptake ([4]; Test A, 5 × 10^−1 μg/ml): 4667 counts per minute | proliferation, 3HT uptake ([4]; Test A, 5 × 10^−2 μg/ml): 2515 counts per minute | proliferation, 3HT uptake ([4]; Test A, 7 × 10^−1 μg/ml): 2475 counts per minute | proliferation, 3HT uptake ([4]; Test B, 1 μg/ml): 3275 counts per minute | proliferation, 3HT uptake ([4]; Test B, 1 × 10^−2 μg/ml): 3077 counts per minute | proliferation, 3HT uptake ([4]; Test B, 1 × 10^−3 μg/ml): 3800 counts per minute | proliferation, 3HT uptake ([4]; Test B, 1 × 10^−4 μg/ml): 2925 counts per minute | proliferation, 3HT uptake ([4]; Test B, 1 × 10^−5 μg/ml): 3645 counts per minute | proliferation, 3HT uptake ([4]; Test B, 5 × 10^−1 μg/ml): 5405 counts per minute | proliferation, 3HT uptake ([4]; Test B, 5 × 10^−2 μg/ml): 4280 counts per minute | proliferation, 3HT uptake ([4]; Test B, 7 × 10^−1 μg/ml): 4302 counts per minute | proliferation of human mononuclear cells (3H methyl-thymidine) (human mononuclear cells [7]; 1 × 10^−3 μg/ml): 6168 | proliferation of human mononuclear cells (3H methyl-thymidine) (human mononuclear cells [7]; 1 × 10^−4 μg/ml): 5331 | proliferation of human mononuclear cells (3H methyl-thymidine) (human mononuclear cells [6]; 1 μg/ml): 2842 | proliferation of human mononuclear cells (3H methyl-thymidine) (human mononuclear cells [6]; 5 μg/ml): 3028 | proliferation of human mononuclear cells (3H methyl-thymidine) (human mononuclear cells [6]; 1 × 10^−1 μg/ml): 4825 | proliferation of human mononuclear cells (3H methyl-thymidine) (human mononuclear cells [6]; 1 × 10^−2 μg/ml): 4730 | proliferation of human mononuclear cells (3H methyl-thymidine) (human mononuclear cells [6]; 5 × 10^−1 μg/ml): 4773 | proliferation of human mononuclear cells (3H methyl-thymidine) (human mononuclear cells [6]; 5 × 10^−2 μg/ml): 5802 | effect on proliferation of human mononuclear cells (human mononuclear cells [6]; any concentration that was tested): *The concentrations that induced proliferation range from 5 × 10^−1 to 1 × 10^−1 μg. No significant effect was found for TeO2 at any concentration that was tested. | cells positive for IL-2 receptors (IL-2 receptors; 1 μg/ml, 24 hours incubation): 5%

equimolar complex of TeO2 and ethane-1,2-diol [7(b)]
proliferation, 3HT uptake ([4]; Test B, 1 μg/ml): 2620 counts per minute | proliferation, 3HT uptake ([4]; Test B, 1 × 10^−2 μg/ml): 3928 counts per minute | proliferation, 3HT uptake ([4]; Test B, 1 × 10^−3 μg/ml): 3007 counts per minute | proliferation, 3HT uptake ([4]; Test B, 1 × 10^−4 μg/ml): 2327 counts per minute | proliferation, 3HT uptake ([4]; Test B, 1 × 10^−5 μg/ml): 2242 counts per minute | proliferation, 3HT uptake ([4]; Test B, 5 × 10^−1 μg/ml): 2402 counts per minute | proliferation, 3HT uptake ([4]; Test B, 5 × 10^−2 μg/ml): 3290 counts per minute | proliferation, 3HT uptake ([4]; Test B, 7 × 10^−1 μg/ml): 2000 counts per minute
